Reference: US10941157B2, “Pesticidal compositions and uses thereof” (Gilead Apollo, LLC, priority 2015, dated 2021)
Converted amounts (≈) assume the structure as drawn. Read-outs that look alike come from different tables or passages of the source.

Key:
Rhizoctonia solani (Rs) = experiment: In vitro pathogen growth inhibition assay, Rs (mycelial plugs); assay type: cell-based; settings: Rhizoctonia solani, 48 h, mycelial plugs
How it was run: (§1)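 Value reported is the compound concentration reaching ≥90% growth inhibition, from OD readings at 24 and 48 h after blank subtraction, confirmed visually. Inoculum was spores diluted in 17% V8 medium, except Rs, using 1.5 mm mycelial plugs in ¼ PDB; actual compound concentration corrected via OD600.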

[1] = test system: Blumeria graminis f. sp. hordei; experiment: Foliar protection test for barley powdery mildew control; assay type: in vivo; settings: foliar spray on Hordeum vulgare cv. Perry, inoculated 24 hours after treatment, evaluated 7 days later
How it was run: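 Protective foliar test: compound atomized onto both leaf surfaces of 6-day-old Hordeum vulgare cv. Perry, followed after 24 h by spore-cloud inoculation from colonized untreated plants. Disease rated on leaves 7 days on, plants held at 20 to 22° C and 70% RH.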

[2] = test system: Fusarium moniliforme (Fm); experiment: In vitro pathogen growth inhibition assay, Fm; assay type: cell-based; settings: Fusarium verticillioides
How it was run: as §1

Sphaerotheca fuliginea = experiment: Foliar protection for cucumber powdery mildew control; assay type: in vivo; settings: foliar spray on Cucumis sativus cv. Straight Eight, inoculated 24 hours after treatment, evaluated 7 days later
How it was run: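 Protective foliar spray on 10-day-old Straight Eight cucumbers, with S. fuliginea spores dusted from infected stock plants 24 h after treatment. Disease developed at 23–27 °C, 60% RH and a 16 h photoperiod. Leaves were rated for mildew growth after 7 days; test rates 10 ppm or below.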

Botrtyis cinerea (Bc) = experiment: In vitro pathogen growth inhibition assay, Bc; assay type: cell-based; settings: 48 h
How it was run: as §1

Puccinia triticina = experiment: Foliar protection test for wheat leaf rust control; assay type: in vivo; settings: foliar application to wheat (Triticum aestivum cv. Winterhawk), evaluated 10 days later
[3] = test system: Blumeria graminis f. sp. hordei; experiment: Early foliar disease control via seed treatment (barley powdery mildew); assay type: in vivo; settings: seed treatment rate 0.025 mg/seed; barley inoculated 7 days after planting, evaluated 7 days later
Protocol: Barley seeds (Hordeum vulgare cv. Perry or Conlon) were treated with a test compound dissolved in pure acetone, in which the acetone solution (1 mL) was used per 50 seeds in glass jars in a fume hood. The seeds were swirled in the glass jars by hand until no obvious presence of acetone remained and the seeds were mostly dry. Plants were grown for 7 days in 2-inch square pots containing Metromix 200 medium amended with fertilizer. […] After inoculation with the pathogen of Blumeria graminis f. sp. hordei, plants were kept at conditions of 20 to 22° C., 200 uM of light, 70% humidity to facilitate infection and disease development. At 7 days after planting (1st true leaf fully expanded), the plants were moved to the cooler chamber and inoculated by shaking well-colonized, untreated stock plants above the treated material. […] Efficacy was evaluated in 7 days later by examining leaves for colonization and growth of powdery mildew. Each side of each leaf was assigned a severity rating of 0, 1, 5, 10, 25, 50, 75, or 100 percent diseased area. Table 14 lists the results of barley powdery mildew control upon seed treatment with test compounds.

[4] = test system: Phytophthora capsici (Pc); experiment: In vitro pathogen growth inhibition assay, Pc; assay type: cell-based; settings: 48 h
How it was run: as §1

Fusarium graminearum [5] = assay type: in vivo; settings: spray on flowering Triticum aestivum cv. Samson, inoculated 24 hours after treatment, evaluated 14 days later
Fusarium graminearum [6] = assay type: in vivo; settings: corn from treated seeds, 0.025 mg/seed, F. graminearum inoculated
Diplodia maydis (Dm) = experiment: In vitro pathogen growth inhibition assay, Dm; assay type: cell-based; settings: Stenocarpella maydis, 48 h
How it was run: as §1

Phakopsora pachyrhizi = experiment: Foliar protection test for Asian soybean rust control; assay type: in vivo; settings: foliar application to soybean (Glycine max AG4832), percent disease area evaluated 14 days later
[7] = test system: Mycosphaerella graminicola (synthetic Septoria tritici); experiment: Foliar protection test for wheat septoria leaf blotch control; assay type: in vivo; settings: foliar spray on Triticum aestivum cv. WinterHawk, inoculated 1 hour after treatment, evaluated 16 days later
[8] = test system: Fusarium virguliforme (Fv); experiment: In vitro pathogen growth inhibition assay, Fv; assay type: cell-based
How it was run: as §1

Septoria tritici (St) = experiment: In vitro pathogen growth inhibition assay, St; assay type: cell-based; settings: Zymoseptoria tritici, 48 h
How it was run: as §1

[9] = test system: Collectotrichum graminicola (Cg); experiment: In vitro pathogen growth inhibition assay, Cg; assay type: cell-based; settings: 48 h
How it was run: as §1

[10] = ≥90% growth inhibition, 48 hours, vs 2% DMSO control, read-out: Compound Concentration (ppm) sufficient for ≥90% inhibition of Rs
[11] = ≥90% growth inhibition, 48 hours, vs 2% DMSO control, read-out: Compound Concentration (ppm) sufficient for ≥90% inhibition of Fm
[12] = ≥90% growth inhibition, 48 hours, vs 2% DMSO control, read-out: Compound Concentration (ppm) sufficient for ≥90% inhibition of Bc
[13] = ≥90% growth inhibition, 48 hours, vs 2% DMSO control, read-out: Compound Concentration (ppm) sufficient for ≥90% inhibition of Pc
[14] = ≥90% growth inhibition, 48 hours, vs 2% DMSO control, read-out: Compound Concentration (ppm) sufficient for ≥90% inhibition of Dm
[15] = ≥90% growth inhibition, 48 hours, vs 2% DMSO control, read-out: Compound Concentration (ppm) sufficient for ≥90% inhibition of Fv
[16] = ≥90% growth inhibition, 48 hours, vs 2% DMSO control, read-out: Compound Concentration (ppm) sufficient for ≥90% inhibition of St
[17] = ≥90% growth inhibition, 48 hours, vs 2% DMSO control, read-out: Compound Concentration (ppm) sufficient for ≥90% inhibition of Cg

Structure (SMILES)	Barley Powdery Mildew Control at a compound concentration of 10 ppm or lower [1]	Cucumber Powdery Mildew Control at a compound concentration of 10 ppm or lower (Sphaerotheca fuliginea)	Wheat Leaf Rust Control at a compound concentration of 10 ppm or lower (Puccinia triticina)	Wheat Fusarium Head Blight Control at a compound concentration of 25 ppm or lower (Fusarium graminearum [5])	Plant Height (Fusarium graminearum [6]; Table 12)	Asian Soybean Rust Control at a compound concentration of 25 ppm or lower (Phakopsora pachyrhizi)	Septoria Leaf Blotch Control at a compound concentration of 25 ppm or lower [7]	IC90 (Rhizoctonia solani (Rs); [10])	IC90 [2, 11]	IC90 (Botrtyis cinerea (Bc); [12])	IC90 [4, 13]	IC90 (Diplodia maydis (Dm); [14])	IC90 [8, 15]	IC90 (Septoria tritici (St); [16])	IC90 [9, 17]	further results
COc1ccc(F)cc1[C@H](Cn1c(=O)n(C(C)(C)C(=O)NC(C)C)c(=O)c2c(C)c(-n3nccn3)sc21)OC(C)C [Compound I-020, (R)-2-(1-(2-(5-fluoro-2-methoxyphenyl)-2-isopropoxyethyl)-5-methyl-2,4-dioxo-6-(2H-1,2,3-triazol-2-yl)-1,4-dihydrothieno[2,3-d]pyrimidin-3 (2H)-yl)-N-isopropyl-2-methylpropanamide]	AA (≥85% control of barley powdery mildew)	AA (≥85% control of cucumber powdery mildew)	B (from 50 to 69% control of wheat leaf rust)	B (from 50 to 69% control of wheat fusarium head blight)	40.53 cm	B (from 50 to 69% control of Asian soybean rust)	B (from 50 to 69% control of wheat septoria leaf blotch)									IC90 (Rhizoctonia solani (Rs); ≥90% inhibition, 48 hours vs 2% DMSO control, read-out: Compound Concentration (ppm) sufficient for ≥90% inhibition of growth, Rs): 0.08 µg/mL (≈ 0.136 µM); IC90 ([2]; ≥90% inhibition, 48 hours vs 2% DMSO control, read-out: Compound Concentration (ppm) sufficient for ≥90% inhibition of growth, Fm): 0.08 µg/mL (≈ 0.136 µM); IC90 (Botrtyis cinerea (Bc); ≥90% inhibition, 48 hours vs 2% DMSO control, read-out: Compound Concentration (ppm) sufficient for ≥90% inhibition of growth, Bc): ≥ 0.08 µg/mL; Barley Powdery Mildew Reduction (%) [3]: 91%; IC90 ([4]; ≥90% inhibition, 48 hours vs 2% DMSO control, read-out: Compound Concentration (ppm) sufficient for ≥90% inhibition of growth, Pc): > 50 µg/mL; IC90 (Diplodia maydis (Dm); ≥90% inhibition, 48 hours vs 2% DMSO control, read-out: Compound Concentration (ppm) sufficient for ≥90% inhibition of growth, Dm): 0.08 µg/mL (≈ 0.136 µM); IC90 ([8]; ≥90% inhibition, 48 hours vs 2% DMSO control, read-out: Compound Concentration (ppm) sufficient for ≥90% inhibition of growth, Fv): 0.4 µg/mL (≈ 0.682 µM); IC90 (Septoria tritici (St); ≥90% inhibition, 48 hours vs 2% DMSO control, read-out: Compound Concentration (ppm) sufficient for ≥90% inhibition of growth, St): ≥ 2 µg/mL; IC90 ([9]; ≥90% inhibition, 48 hours vs 2% DMSO control, read-out: Compound Concentration (ppm) sufficient for ≥90% inhibition of growth, Cg): 0.08 µg/mL (≈ 0.136 µM)
CCNC(=O)C(C)(C)n1c(=O)c2c(C)c(-n3nccn3)sc2n(C[C@H](OCCC#N)c2cc(F)ccc2OC)c1=O [Compound I-206, (R)-2-(1-(2-(2-cyanoethoxy)-2-(5-fluoro-2-methoxyphenyl)ethyl)-5-methyl-2,4-dioxo-6-(2H-1,2,3-triazol-2-yl)-1,4-dihydrothieno[2,3-d]pyrimidin-3 (2H)-yl)-N-ethyl-2-methylpropanamide]	AA (≥85% control of barley powdery mildew)	AA (≥85% control of cucumber powdery mildew)	AA (≥85% control of wheat leaf rust)	B (from 50 to 69% control of wheat fusarium head blight)		AA (≥85% control of Asian soybean rust)	AA (≥85% control of wheat septoria leaf blotch)	0.08 µg/mL (≈ 0.137 µM)	0.08 µg/mL (≈ 0.137 µM)	0.4 µg/mL (≈ 0.685 µM)	> 50 µg/mL	0.4 µg/mL (≈ 0.685 µM)	0.4 µg/mL (≈ 0.685 µM)	> 50 µg/mL	0.4 µg/mL (≈ 0.685 µM)	Plant Height (Fusarium graminearum [6]; Table 13): 42.72 cm
COc1ccc(F)cc1[C@@H](O)Cn1c(=O)n(C(C)(C)C(=O)NC(C)C)c(=O)c2c(C)c(-n3nccn3)sc21 [Compound I-185, (R)-2-(1-(2-(5-fluoro-2-methoxyphenyl)-2-hydroxyethyl)-5-methyl-2,4-dioxo-6-(2H-1,2,3-triazol-2-yl)-1,4-dihydrothieno[2,3-d]pyrimidin-3 (2H)-yl)-N-isopropyl-2-methylpropanamide]	AA (≥85% control of barley powdery mildew)	AA (≥85% control of cucumber powdery mildew)	AA (≥85% control of wheat leaf rust)	A (from 70% to 84% control of wheat fusarium head blight)	45.66 cm	AA (≥85% control of Asian soybean rust)	AA (≥85% control of wheat septoria leaf blotch)	0.08 µg/mL (≈ 0.147 µM)	0.08 µg/mL (≈ 0.147 µM)	0.4 µg/mL (≈ 0.734 µM)	≥ 10 µg/mL	0.4 µg/mL (≈ 0.734 µM)	0.08 µg/mL (≈ 0.147 µM)	≥ 50 µg/mL	0.4 µg/mL (≈ 0.734 µM)	
